According to article PMC11508633, “In Silico Discovery of a Novel PI3Kδ Inhibitor Incorporating 3,5,7-Trihydroxychroman-4-one Targeting Diffuse Large B-Cell Lymphoma” (International Journal of Molecular Sciences, 2024):

Target: T1, PI3Kδ (Homo sapiens, UniProt O00329)
T1 construct: gene PIK3CD; PI3Kδ (p120δ/p85α); with p85α
Assay: ADP-Glo kinase assay (PIP2:PS substrate, […] ATP)
Format: biochemical

T1 sequence (O00329 whole entry): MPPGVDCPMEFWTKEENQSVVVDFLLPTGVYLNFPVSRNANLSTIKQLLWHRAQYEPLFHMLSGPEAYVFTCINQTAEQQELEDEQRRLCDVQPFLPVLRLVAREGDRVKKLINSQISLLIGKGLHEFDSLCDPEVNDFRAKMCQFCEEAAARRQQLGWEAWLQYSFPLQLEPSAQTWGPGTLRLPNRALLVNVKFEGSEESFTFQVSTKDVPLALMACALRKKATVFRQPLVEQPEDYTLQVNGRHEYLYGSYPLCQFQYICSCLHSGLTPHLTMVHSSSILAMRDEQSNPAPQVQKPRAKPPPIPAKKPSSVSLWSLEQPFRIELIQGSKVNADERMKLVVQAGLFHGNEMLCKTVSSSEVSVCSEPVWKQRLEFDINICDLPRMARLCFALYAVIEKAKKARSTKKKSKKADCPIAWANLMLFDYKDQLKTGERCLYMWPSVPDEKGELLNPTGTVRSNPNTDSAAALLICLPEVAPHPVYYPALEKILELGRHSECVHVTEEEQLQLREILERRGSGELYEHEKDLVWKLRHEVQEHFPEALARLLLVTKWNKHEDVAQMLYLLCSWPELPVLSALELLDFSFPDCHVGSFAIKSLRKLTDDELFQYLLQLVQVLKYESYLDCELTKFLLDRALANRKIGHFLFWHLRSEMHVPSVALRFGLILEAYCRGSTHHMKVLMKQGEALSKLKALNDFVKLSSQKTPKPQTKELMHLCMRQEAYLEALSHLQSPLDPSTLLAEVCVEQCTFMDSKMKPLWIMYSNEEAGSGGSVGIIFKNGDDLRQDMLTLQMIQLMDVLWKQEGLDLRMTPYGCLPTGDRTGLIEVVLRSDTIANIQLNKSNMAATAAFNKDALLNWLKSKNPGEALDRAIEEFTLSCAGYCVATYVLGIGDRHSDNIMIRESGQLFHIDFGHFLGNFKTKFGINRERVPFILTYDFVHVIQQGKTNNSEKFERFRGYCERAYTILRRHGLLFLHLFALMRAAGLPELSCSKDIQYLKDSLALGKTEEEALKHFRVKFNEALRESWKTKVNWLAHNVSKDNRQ
T1 sequence (P27986 2-724 partner): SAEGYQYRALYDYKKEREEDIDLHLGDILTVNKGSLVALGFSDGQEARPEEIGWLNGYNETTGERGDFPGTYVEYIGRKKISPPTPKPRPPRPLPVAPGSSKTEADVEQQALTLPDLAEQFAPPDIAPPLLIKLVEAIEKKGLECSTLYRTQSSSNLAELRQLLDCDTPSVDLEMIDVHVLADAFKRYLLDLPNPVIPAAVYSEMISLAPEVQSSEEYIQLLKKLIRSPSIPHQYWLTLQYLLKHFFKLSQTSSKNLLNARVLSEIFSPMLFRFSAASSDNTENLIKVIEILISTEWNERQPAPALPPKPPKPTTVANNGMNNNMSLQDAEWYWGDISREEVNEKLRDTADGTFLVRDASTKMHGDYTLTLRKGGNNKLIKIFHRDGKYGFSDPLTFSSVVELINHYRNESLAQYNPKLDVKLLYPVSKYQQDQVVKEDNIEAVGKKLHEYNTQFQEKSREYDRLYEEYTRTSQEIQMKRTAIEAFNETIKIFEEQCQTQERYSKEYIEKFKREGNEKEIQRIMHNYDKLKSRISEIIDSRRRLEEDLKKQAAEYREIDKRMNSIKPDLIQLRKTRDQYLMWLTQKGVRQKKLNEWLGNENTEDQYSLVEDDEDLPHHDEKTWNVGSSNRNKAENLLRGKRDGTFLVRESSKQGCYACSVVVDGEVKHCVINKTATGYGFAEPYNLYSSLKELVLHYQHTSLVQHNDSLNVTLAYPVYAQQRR

IC50: 288 µM
Compound: COc1cc(C2Oc3cc([C@H]4Oc5cc(O)cc(O)c5C(=O)[C@@H]4O)ccc3OC2CO)ccc1O (stereo partly shown) [Silibinin]
